Source: patent US7799794B2, “Treatment for cardiovascular disease” (Merck Sharp & Dohme Corp., priority 2000, dated 2010)

Tested on: Sprague-Dawley rats
Test: Renal findings at 7 weeks: immunohistochemistry and BUN (Example 2)
Type: in vivo, rat
Conditions: low NaCl diet
Description: Rats were placed on a low sodium diet (NaCl, 0.125%) with or without 2% oxonic acid for 7 weeks. A third group were administered allopurinol in the drinking water (150 mg/L) with weekly adjustments of the dose depending on the uric acid level.
Am J Clin Pathol 1957; 28:152.]. Serum blood urea nitrogen was measured by a standard kit (Sigma, St Louis, Mo.).
Renal biopsies were fixed in Methyl-Carnoy's, 10% formalin or 100% ethanol and embedded in paraffin. The presence of uric acid crystals was evaluated by staining 4-μm ethanol-fixed sections with de Galantha and modified Von Kossa stains. Kidney tissue from rats with acute uric acid nephropathy, induced with oxonic acid and uric acid administration was used as a positive control [Stavric, B., Johnson, W. J., and Grice, H. C., Uric acid nephropathy: An experimental model, Proc. Soc. Exp. Biol. Med. 130: 512-16 (1969).]. Light microscopy was performed in 4-μm sections of Methyl-Carnoy's fixed tissue stained with periodic acid Schiff (PAS) reagent or with hematoxylin and eosin.
Methyl-Carnoy's fixed tissue sections were analyzed by indirect immunoperoxidase [Lombardi, D., Gordon , K. L., Polinsky, P., Suga, S., Schwartz, S. M., and Johnson, R. J. Salt sensitive hypertension develops after transient exposure to angiotensin II. Hypertension 33:1013-1019, 1999] staining with the following primary antibodies: OP199, a goat polyclonal antibody against osteopontin (OPN)(gift of C. Giachelli, Univ of Wash., Seattle); ED-1, a monoclonal antibody to rat monocytes and macrophages (Serotec); goat antihuman type III collagen (Southern Biotechnology Associates Inc, Birminghan Ala.); and anti-renin, a mouse antibody to human renin (Sanofi Recherche, Montpellier, France). Sections were incubated with a secondary antibody followed by horseradish peroxidase-conjugated avidin D (Vector Laboratories, Burlingame, Calif.), diaminobenzidine (Sigma) with or without nickel chloride as a chromogen, and counsterstained with methyl green.
NOS1 was detected on formalin fixed tissue sections with a rabbit anti-rat neuronal nitric oxide synthase (Transduction Laboratories, Lexington, Ky.), followed by a biotinylated secondary antibody, diaminobenzidine with nickel chloride and counterstained with nuclear fast red.
All quantification was performed blinded. The tubular expression of osteopontin (OPN), which is a sensitive marker of tubulointerstitial injury, was calculated as the percent of renal cortex occupied by OPN-positive tubules [Lombardi, D., Gordon, K. L., Polinsky, P., Suga, S., Schwartz, S. M., and Johnson, R. J. Salt sensitive hypertension develops after transient exposure to angiotensin II. Hypertension 33:1013-1019, 1999]. Utilizing computer-assisted image analysis software (Optimas V6.2, Media Cybernetics, Silver Springs, Md.) and digitized images, the percent of area occupied by OPN positive tubules per 4 mm^2 field at a magnification of 50× was measured and the mean percent area calculated for each biopsy. The interstitial deposition of collagen type III was calculated as the % of renal cortex occupied by collagen III, noted by immunostaining, by computer image analysis. The mean number of interstitial macrophages (ED-1+cells) in each biopsy was calculated in a blinded manner by counting the total number of positive interstitial cortical cells in 20 sequentially selected 0.25 mm^2 grids at 200× magnification. Renin expression was quantified by the number of glomeruli with positive staining for juxtaglomerular renin using a minimum of 100 glomeruli in each biopsy as previously described [Eng, E., et al., Renal proliferation and phenotypic changes in rats with two-kidney, one-clip Goldblatt hypertension. Am J Hypertens 7:177-185 (1994)]; this has been shown previously to correlate with intrarenal renin content[Eng, E., et al., Renal proliferation and phenotypic changes in rats with two-kidney, one-clip Goldblatt hypertension. Am J Hypertens 7:177-185 (1994)]. […]

O=C(O)c1nc(=O)[nH]c(=O)[nH]1 [oxonic acid]
Renin (control 39.6 ± 2.0): 60.9 ± 1.5 % positive JGA | NOS-1 (control 147.2 ± 12.4): 80.4 ± 4.3 positive cells/100 glomeruli | OPN (mean±SE, control 0.9 ± 0.06): 1.8 ± 0.06 % increase | Type III collagen (mean±SE, control 5.4 ± 0.3): 8.8 ± 1.5 % | BUN (mean±SE, control 14.4 ± 1.2): 23.2 ± 2.3 mg/dL | ED-1 (macrophages) (mean±SE, control 18.3 ± 1.3): 27.2 ± 1.9 cells/mm2
